Reference: ChEMBL document CHEMBL1150179, “The cytotoxic principles of Solanum incanum” (1990)
Converted amounts (≈) assume the structure as drawn.

Tested on: not listed separately
Test: Cytotoxicity against human PLC/PRF/5 cells by microassay
Assay type: functional
Conditions: read-out: ED50 (the source's name)

Row | Compound | EC50 [µg/mL]
1 | C[C@@H]1CC[C@]2(NC1)O[C@H]1C[C@H]3[C@@H]4CC=C5C[C@@H](O)CC[C@]5(C)[C@H]4CC[C@]3(C)[C@H]1[C@@H]2C [SOLASODINE] | 3.75 (≈ 9.07 µM)
2 | C[C@H]1[C@H](C)CC[C@]2(C(=O)O)CC[C@]3(C)C(=CC[C@@H]4[C@@]5(C)CC[C@H](OC(=O)c6ccccc6)C(C)(C)[C@@H]5CC[C@]43C)[C@H]12 | 6.89 (≈ 12.3 µM)
3 | C[C@@H]1CC[C@@]2(NC1)O[C@H]1C[C@H]3[C@@H]4CC=C5C[C@@H](O[C@@H]6O[C@H](CO)[C@@H](O[C@@H]7O[C@@H](C)[C@H](O)[C@@H](O)[C@H]7O)[C@H](O)[C@H]6O)CC[C@]5(C)[C@H]4CC[C@]3(C)[C@H]1[C@@H]2C [KHASIANINE] | 8.6 (≈ 11.9 µM)
4 | C/C=C/C(=O)O[C@H]1CC[C@]2(C)[C@H]3CC=C4[C@@H]5[C@@H](C)[C@H](C)CC[C@]5(C(=O)O)CC[C@@]4(C)[C@]3(C)CC[C@H]2C1(C)C | 2.59 (≈ 4.94 µM)
5 | CCC(=O)O[C@H]1CC[C@]2(C)[C@H]3CC=C4[C@@H]5[C@@H](C)[C@H](C)CC[C@]5(C(=O)O)CC[C@@]4(C)[C@]3(C)CC[C@H]2C1(C)C | 2.54 (≈ 4.95 µM)
6 | C[C@H]1[C@H](C)CC[C@]2(C(=O)O)CC[C@]3(C)C(=CC[C@@H]4[C@@]5(C)CC[C@H](OC(=O)/C=C/c6ccccc6)C(C)(C)[C@@H]5CC[C@]43C)[C@H]12 | 7.24 (≈ 12.3 µM)
7 | C[C@@H]1CC[C@@]2(NC1)O[C@H]1C[C@H]3[C@@H]4CC=C5C[C@@H](O[C@@H]6O[C@H](CO)[C@@H](O[C@@H]7O[C@@H](C)[C@H](O)[C@@H](O)[C@H]7O)[C@H](O)[C@H]6O[C@@H]6O[C@@H](C)[C@H](O)[C@@H](O)[C@H]6O)CC[C@]5(C)[C@H]4CC[C@]3(C)[C@H]1[C@@H]2C [SOLAMARGINE] | 1.53 (≈ 1.76 µM)
8 | C[C@H]1[C@H](C)CC[C@]2(C(=O)O)CC[C@]3(C)C(=CC[C@@H]4[C@@]5(C)CC[C@H](O)C(C)(C)[C@@H]5CC[C@]43C)[C@H]12 [URSOLIC ACID] | 3.89 (≈ 8.52 µM)
9 | CC[C@H](C[C@@H](O)[C@@H](C)[C@H]1CC[C@H]2C3=CC(=O)[C@H]4[C@H](C)[C@@H](OC(=O)c5ccccc5)CC[C@]4(C)[C@H]3CC[C@]12C)C(C)C [CARPESTEROL] | 8.47 (≈ 15 µM)
10 | CCCCCCCCCCCCCCCC(=O)O[C@H]1CC[C@]2(C)[C@H]3CC=C4[C@@H]5[C@@H](C)[C@H](C)CC[C@]5(C(=O)O)CC[C@@]4(C)[C@]3(C)CC[C@H]2C1(C)C | 3.54 (≈ 5.09 µM)

Tested on: KB
Test: Cytotoxicity against human KB cells by microassay
Assay type: functional
Conditions: read-out: ED50 (the source's name)

Row | Compound | EC50 [µg/mL]
11 | C[C@@H]1CC[C@]2(NC1)O[C@H]1C[C@H]3[C@@H]4CC=C5C[C@@H](O)CC[C@]5(C)[C@H]4CC[C@]3(C)[C@H]1[C@@H]2C [SOLASODINE] | 3.74 (≈ 9.04 µM)
12 | C[C@H]1[C@H](C)CC[C@]2(C(=O)O)CC[C@]3(C)C(=CC[C@@H]4[C@@]5(C)CC[C@H](O)C(C)(C)[C@@H]5CC[C@]43C)[C@H]12 [URSOLIC ACID] | 3.76 (≈ 8.23 µM)
